# Assay results: patent US20080318268A1, “Devices and Methods for the Selection of Agents with Efficacy Against Biofilm” (priority 2005, published 2008)
# Like-named read-outs stand apart in the source and are kept apart here.
# Tests used:
# [1] = tested on: planktonic cultures of C. albicans; assay: Planktonic antifungal sensitivity (MIC, MFC) of C. albicans; format: cell-based, Candida albicans
# Description: (§1) Three clinical isolates of Candida were used in this study, including one albicans and two non-albicans species. C. albicans ATCC 14053 was obtained from the University Of Calgary, Department Of Biological Sciences. C. tropicalis 99916 and C. glabrata 14326 were obtained from the dialysate of patients undergoing continued ambulatory peritoneal dialysis (CAPD). Aspergillus fumigatus was also tested.
# Biofilm susceptibility testing uses the pegged lid of the assembly, now containing biofilms formed after rocking in the tray for 24 hour. Each peg on the lid was gently washed once in 200 μl of phosphate buffered saline solution (PBSS) in a 96-well microtiter plate (Falcon). The pegged lid was then transferred to another 96 well microtiter plate containing 2 fold dilutions antifungal agent in 200 μl of RPMI 1640 (Sigma, St. Louis, Mo.) or RPMI 1640 containing 1% DMSO (see test drug section). After the pegs were exposed to the drugs for 24 hours, the pegged lid was removed and gently rinsed twice in saline. The pegged lid was then placed on a 96 well plate containing RPMI 1640 recovery medium. The pegs were sonicated for 5 minutes (Candida spp.) or 7 minutes (Aspergillus) in an ultrasonicator to dislodge adherent cells into the recovery medium. Aliquots of 20 μl of the recovery medium were spot plated on SDA (Candida spp) or Rose Bengal Agar (A. fumigatus) to obtain the MBEC. […] The turbidity of the wells that contained the antibiotic and planktonic cells which were shed from the biofilm was measured at 650 nm to obtain the MIC. […]
# (§2) Minimum Inhibitory Concentrations (MIC) and Minimum Fungicidal Concentrations (MFC) were determined according to the guidelines of the National Committee for Clinical laboratory Standards (NCCLS). […]
# (§3) The test wells were then incubated at 37° C. for 24 hours with the antifungal drugs. MICs for Candida were obtained after incubation by reading the turbidity at 650 nm on a microtiter plate reader (Softmax, VWR). […] MFCs were determined for Aspergillus by plating 100 μl from each well onto Rose Bengal Agar, followed by spreading with a sterile glass spreader. […]
# [2] = tested on: biofilm cells of C. albicans; assay: Minimum biofilm eradication concentration assay, C. albicans biofilm; format: cell-based, Candida albicans
# Description: as §1
# Biofilm formation and measurement of antimicrobial sensitivity of Candida and Aspergillus biofilms were performed using an assembly of the present invention. The device features a microtiter plate lid with 96 pegs or projections distributed on the lid. Each peg provided the surface for microorganism to adhere, colonize and form a uniform biofilm. The pegs fit precisely into the wells of a standard 96-well microtiter plate. The lid was used in conjunction with a base having special troughs for growing, washing, and incubating fungi. […] It was determined in preliminary experiments that C. glabrata required 10% CO2 atmosphere for biofilms to form.
# Biofilm susceptibility testing uses the pegged lid of the assembly, now containing biofilms formed after rocking in the tray for 24 hour. […] The turbidity of the wells that contained the antibiotic and planktonic cells which were shed from the biofilm was measured at 650 nm to obtain the MIC. […]
# planktonic Candida cells = assay: Planktonic antifungal sensitivity of Candida spp.; format: cell-based; details: all species tested
# Description: as §1
# (§4) Biofilm susceptibility testing uses the pegged lid of the assembly, now containing biofilms formed after rocking in the tray for 24 hour. Each peg on the lid was gently washed once in 200 μl of phosphate buffered saline solution (PBSS) in a 96-well microtiter plate (Falcon). The pegged lid was then transferred to another 96 well microtiter plate containing 2 fold dilutions antifungal agent in 200 μl of RPMI 1640 (Sigma, St. Louis, Mo.) or RPMI 1640 containing 1% DMSO (see test drug section). After the pegs were exposed to the drugs for 24 hours, the pegged lid was removed and gently rinsed twice in saline. The pegged lid was then placed on a 96 well plate containing RPMI 1640 recovery medium. The pegs were sonicated for 5 minutes (Candida spp.) or 7 minutes (Aspergillus) in an ultrasonicator to dislodge adherent cells into the recovery medium. Aliquots of 20 μl of the recovery medium were spot plated on SDA (Candida spp) or Rose Bengal Agar (A. fumigatus) to obtain the MBEC. The assembly was also used to determine the minimum inhibitory concentration (MIC) and minimum fungicidal concentration (MFC). The turbidity of the wells that contained the antibiotic and planktonic cells which were shed from the biofilm was measured at 650 nm to obtain the MIC. A 20 μl sample from each well was also spot plated onto Sabouraud Dextrose agar (Candida spp) or Rose Bengal Agar (A. fumigatus) to obtain the MFC.
# Minimum Inhibitory Concentrations (MIC) and Minimum Fungicidal Concentrations (MFC) were determined according to the guidelines of the National Committee for Clinical laboratory Standards (NCCLS). Briefly, Candida sp. were maintained on polystyrene spheres at −70° C. until plating. These organisms were streaked onto Sabouraud Dextrose agar (Microbiologie) plates 24 hours before test initiation. The 24 hour colonies were picked from the agar plates and placed in Muellar-Hinton Broth (MHB, Microbiologie) such that the turbidity matched a McFarland standard of 0.5. This was then diluted 1:10 in MHB to obtain a suspension of approximately 1×10^5 to 5×10^5 CFU/ml. A 5 μl volume of this suspension was added to wells containing 200 μl of antifungal agent serially diluted in RPMI 1640 media (Sigma) in a 96 well microtiter plate (Nunclon). A. fumigatus was maintained as a spore suspension at 4° C. until testing. The spore suspension (50 μl) was diluted into 250 ml of TSB, and 5 μl of this suspension was added to each test well containing dilution of antifungal agent as above.
# The test wells were then incubated at 37° C. for 24 hours with the antifungal drugs. MICs for Candida were obtained after incubation by reading the turbidity at 650 nm on a microtiter plate reader (Softmax, VWR). A 20 μl aliquot of each well was also plated (SDA) and MFCs obtained from them after 24 hours incubation at 37° C. MFCs were determined for Aspergillus by plating 100 μl from each well onto Rose Bengal Agar, followed by spreading with a sterile glass spreader. The plated organisms were maintained at 25° C. for three days before colony enumeration.
# Drugs tested. Itraconazole, Fluconazole, and Ketoconazole were obtained from Janssen Pharmaceuticals in Brussels, Belgium. Nystatin 5-Fluorocytosine, Griseofulvin, Amphotericin B and Polymyxin B were obtained from Sigma Chemical Co, St. Louis, Mo. 5-Fluorocytosine, polymyxin B sulphate and nystatin were dissolved in double-distilled water to a concentration of 10.24 mg/ml and diluted in the test wells through a range of 1024 μg/ml to 0.125 μg/ml in RPMI. […]
# Candida biofilms = assay: Minimum biofilm eradication concentration assay, Candida spp. biofilms; format: cell-based
# Description: as §1
# Biofilm formation and measurement of antimicrobial sensitivity of Candida and Aspergillus biofilms were performed using an assembly of the present invention. The device features a microtiter plate lid with 96 pegs or projections distributed on the lid. Each peg provided the surface for microorganism to adhere, colonize and form a uniform biofilm. The pegs fit precisely into the wells of a standard 96-well microtiter plate. The lid was used in conjunction with a base having special troughs for growing, washing, and incubating fungi. Colonies of Candida sp. were picked from 24 hour cultures on Sabouraud Dextrose agar (SDA) (BBL Microbiological Systems, Cockeysville, Md.) and placed into Mueller-Hinton Broth (MHB) (Difco Laboratories, Detroit Mich.) such that the suspension matched a McFarland standard of 1.0. This suspension was then diluted 1:30 in MHB, and 25 ml were pipetted into the trough chamber of the base. The closed assembly (lid with pegs positioned on the base) was placed on a Hoeffer Red Rocker (VWR, Scientific) set to rock the plates 3.5 cycles per minute in a 37° C. incubator. C. albicans and C. tropicalis were incubated aerobically, while C. glabrata was incubated in 10% CO2. It was determined in preliminary experiments that C. glabrata required 10% CO2 atmosphere for biofilms to form.
# as §4
# Drugs tested. Itraconazole, Fluconazole, and Ketoconazole were obtained from Janssen Pharmaceuticals in Brussels, Belgium. Nystatin 5-Fluorocytosine, Griseofulvin, Amphotericin B and Polymyxin B were obtained from Sigma Chemical Co, St. Louis, Mo. […]
# [3] = cited from earlier work
# [4] = tested on: invasive pulmonary, sinus and cerebral aspergillosis; details: cited from earlier work
# C. tropicalis = assay: Planktonic antifungal sensitivity (MIC) of C. tropicalis; format: cell-based, Candida tropicalis; details: C. tropicalis strain tested
# Description: as §1
# Biofilm susceptibility testing uses the pegged lid of the assembly, now containing biofilms formed after rocking in the tray for 24 hour. Each peg on the lid was gently washed once in 200 μl of phosphate buffered saline solution (PBSS) in a 96-well microtiter plate (Falcon). […] The turbidity of the wells that contained the antibiotic and planktonic cells which were shed from the biofilm was measured at 650 nm to obtain the MIC. […]
# as §2, §3
# [5] = tested on: Staphylococcus aureus (Staph) planktonic bacteria; assay: MBEC assay, planktonic Staph isolates (Example 5); format: cell-based; details: number of resistant isolates; 12 isolates from device associated infections; exposed 24 hours
# [6] = tested on: Staphylococcus aureus (Staph) biofilm; assay: MBEC assay, Staph biofilms (Example 5); format: cell-based; details: number of resistant isolates; 12 isolates from device associated infections; exposed 24 hours
# [7] = tested on: Pseudomonas aeruginosa (Ps) planktonic bacteria; assay: MBEC assay, planktonic Ps isolates (Example 5); format: cell-based; details: number of resistant isolates; 12 isolates from Cystic Fibrosis patients; exposed 24 hours
# [8] = tested on: Pseudomonas aeruginosa (Ps) biofilm; assay: MBEC assay, Ps biofilms (Example 5); format: cell-based; details: number of resistant isolates; 12 isolates from Cystic Fibrosis patients; exposed 24 hours
# planktonic P. aeruginosa = assay: Pseudomonas aeruginosa biofilm assay kit, planktonic MIC reading of challenge plate (Example 8); format: cell-based; details: challenge 24 hours at 35° C.; breakpoint concentrations
# P. aeruginosa biofilm = assay: Pseudomonas aeruginosa biofilm assay kit, biofilm MBEC reading of recovery plate (Example 8); format: cell-based; details: challenge 24 hours at 35° C.; recovery 20 to 24 hours; breakpoint concentrations
# [9] = tested on: planktonic Staphylococcus aureus; assay: Staphylococcus test plate, planktonic forms (Example 9); format: cell-based; details: breakpoint concentrations, number in the label is the concentration tested
# [10] = tested on: Staphylococcus aureus biofilm; assay: Staphylococcus test plate, biofilm forms (Example 9); format: cell-based; details: breakpoint concentrations, number in the label is the concentration tested
# [11] = planktonic cultures of C. albicans
compound,measurement,setting,value
"C[C@@H]1[C@H](O)[C@@H](C)/C=C/C=C/C=C/C=C/C=C/C=C/C=C/[C@H](O[C@@H]2O[C@H](C)[C@@H](O)[C@H](N)[C@@H]2O)C[C@@H]2O[C@](O)(C[C@@H](O)C[C@@H](O)[C@H](O)CC[C@@H](O)C[C@@H](O)CC(=O)O[C@H]1C)C[C@H](O)[C@H]2C(=O)O [amphotericin B, Amphotericin B]",average MFC,[1]; [11],0.02 µg/mL
same,average MIC,[1]; [11],0.09 µg/mL
same,average concentration required to kill biofilm cells,[2],12 µg/mL
same,effectiveness in killing planktonic Candida cells,planktonic Candida cells,effective
same,MBEC,Candida biofilms; Candida biofilms,16 µg/mL
same,effectiveness against Candida growing as a biofilm,Candida biofilms; biofilm (sessile) Candida,most effective agents
same,peak permissible human serum concentrations,[3],2 µg/mL
same,cases that show any response,[4]; 14 days of treatment,54%
same,crude mortality rate,[4]; patients treated for invasive cerebral aspergillosis,99%
same,crude mortality rate,[4]; patients treated for invasive pulmonary aspergillosis,86%
same,crude mortality rate,[4]; patients treated for invasive sinus aspergillosis,66%
"OC(Cn1cncn1)(Cn1cncn1)c1ccc(F)cc1F [fluconazole, Fluconazole]",classification by fluconazole MIC criterion (less than or equal to 8 μg/ml = susceptible),[1]; C. albicans strain tested,susceptible
same,classification by fluconazole MIC criterion (less than or equal to 8 μg/ml = susceptible),C. tropicalis,susceptible
same,effectiveness in killing planktonic Candida cells,planktonic Candida cells,effective
gentamicin [GM],"Staph resistance to individual antibiotics and antibiotic combinations, Planktonic",[5],6
same,"Staph resistance to individual antibiotics and antibiotic combinations, Biofilm",[6],10
same,"Ps resistance to individual antibiotics and antibiotic combinations, Planktonic",[7],8
same,"Ps resistance to individual antibiotics and antibiotic combinations, Biofilm",[8],12
same,"Number of P. aeruginosa isolates resistant to individual antibiotics and antibiotic combinations, Planktonic",planktonic P. aeruginosa,8
same,"Number of P. aeruginosa isolates resistant to individual antibiotics and antibiotic combinations, Biofilm",P. aeruginosa biofilm,12
same,"Number of Staphylococcus aureus isolates resistant to individual antibiotics and antibiotic combinations, Planktonic",[9]; listed as GM2,4
same,"Number of Staphylococcus aureus isolates resistant to individual antibiotics and antibiotic combinations, Planktonic",[9]; listed as GM4,3
same,"Number of Staphylococcus aureus isolates resistant to individual antibiotics and antibiotic combinations, Biofilm",[10]; listed as GM2,11
same,"Number of Staphylococcus aureus isolates resistant to individual antibiotics and antibiotic combinations, Biofilm",[10]; listed as GM4,10
"CN[C@H](CC(C)C)C(=O)N[C@H]1C(=O)N[C@@H](CC(N)=O)C(=O)N[C@H]2C(=O)N[C@H]3C(=O)N[C@H](C(=O)N[C@H](C(=O)O)c4cc(O)cc(O)c4-c4cc3ccc4O)[C@H](O)c3ccc(c(Cl)c3)Oc3cc2cc(c3O[C@@H]2O[C@H](CO)[C@@H](O)[C@H](O)[C@H]2O[C@H]2C[C@](C)(N)[C@H](O)[C@H](C)O2)Oc2ccc(cc2Cl)[C@H]1O [VAN, vancomycin]","Staph resistance to individual antibiotics and antibiotic combinations, Planktonic",[5],6
same,"Staph resistance to individual antibiotics and antibiotic combinations, Biofilm",[6],12
same,"Number of Staphylococcus aureus isolates resistant to individual antibiotics and antibiotic combinations, Planktonic",[9]; listed as VAN2,5
same,"Number of Staphylococcus aureus isolates resistant to individual antibiotics and antibiotic combinations, Planktonic",[9]; listed as VAN4,1
same,"Number of Staphylococcus aureus isolates resistant to individual antibiotics and antibiotic combinations, Biofilm",[10],12
